Test results from ChEMBL document CHEMBL1154657, “Heterobiaryl purine derivatives as potent antiproliferative agents: inhibitors of cyclin dependent kinases. Part II” (Bioorg Med Chem Lett, 2009).

Key:
[1] = Growth inhibition of human HeLaS3 cells; type: functional; conditions: HeLa S3
[2] = target: Cyclin-dependent kinase 2/cyclin E (Homo sapiens, UniProt P24941); test: Inhibition of Cdk2/cyclinE; type: protein-complex assay
[3] = target: Cyclin-dependent kinase 2/cyclin A (Homo sapiens, UniProt P24941); test: Inhibition of recombinant Cdk2/cyclinA; type: protein-complex assay

SMILES | IC50 [2] [nM] | IC50 [3] [nM] | GI50 [1] [nM]
CC(C)n1cnc2c(NCc3ccc(-c4ccsc4)cc3)nc(N[C@H]3CC[C@H](N)CC3)nc21 | 200 | 400 | 40
CC(C)n1cnc2c(NCc3ccc(-c4cccs4)nc3)nc(N[C@H]3CC[C@H](N)CC3)nc21 |  | 900 | 98
Cc1cccc(-c2ccc(CNc3nc(N[C@H]4CC[C@H](N)CC4)nc4c3ncn4C(C)C)s2)c1 | 200 | 700 | 200
CC(C)n1cnc2c(NCc3csc(-c4ccccc4)n3)nc(N[C@H]3CC[C@H](N)CC3)nc21 | 400 | 700 | 4000
CC(C)n1cnc2c(NCc3ccc(-c4ccoc4)s3)nc(N[C@H]3CC[C@H](N)CC3)nc21 | 200 | 600 | 2000
CC[C@H](CO)Nc1nc(NCc2ccccc2)c2ncn(C(C)C)c2n1 [SELICICLIB] |  |  | 20000
CC(C)n1cnc2c(NCc3ccc(-c4ccccc4)cc3)nc(N[C@H]3CC[C@H](N)CC3)nc21 | 100 | 400 | 
Cc1csc(-c2ccc(CNc3nc(N[C@H]4CC[C@H](N)CC4)nc4c3ncn4C(C)C)cc2)c1 | 200 | 500 | 400
CC(C)n1cnc2c(NCc3ccc(-c4ccccn4)s3)nc(N[C@H]3CC[C@H](N)CC3)nc21 | 44 | 1500 | 270
Cc1ccc(-c2ccc(CNc3nc(N[C@H]4CC[C@H](N)CC4)nc4c3ncn4C(C)C)cc2)s1 | 200 | 600 | 400
CC(C)n1cnc2c(NCc3ccc(-c4ccc(Cl)s4)cc3)nc(N[C@H]3CC[C@H](N)CC3)nc21 | 300 | 400 | 380
CC(C)n1cnc2c(NCc3ccc(-c4ccccc4)cn3)nc(N[C@H]3CC[C@H](N)CC3)nc21 | 400 | 500 | 500
CC(C)n1cnc2c(NCc3ccc(-c4ccccc4F)s3)nc(N[C@H]3CC[C@H](N)CC3)nc21 | 80 | 400 | 300
CC(C)n1cnc2c(NCc3ccc(-c4ccc(F)cc4)s3)nc(N[C@H]3CC[C@H](N)CC3)nc21 | 300 | 500 | 390

The next lines start with results.

IC50 [2] [nM] | IC50 [3] [nM] | SMILES | GI50 [1] [nM]
200 | 200 | CC(C)n1cnc2c(NCc3ccc(-n4cccc4)cc3)nc(N[C@H]3CC[C@H](N)CC3)nc21 | 20
50 | 70 | CC(C)n1cnc2c(NCc3ccc(-n4cccn4)nc3)nc(N[C@H]3CC[C@H](N)CC3)nc21 | 20
150 | 300 | CC(C)n1cnc2c(NCc3coc(-c4ccccc4)c3)nc(N[C@H]3CC[C@H](N)CC3)nc21 | 330
90 | 250 | CC(C)n1cnc2c(NCc3ccc(-c4cccc(F)c4)s3)nc(N[C@H]3CC[C@H](N)CC3)nc21 | 190
100 | 300 | COc1cccc(-c2ccc(CNc3nc(N[C@H]4CC[C@H](N)CC4)nc4c3ncn4C(C)C)s2)c1 | 160
< 30 | 100 | CC(C)n1cnc2c(NCc3ccc(-c4ccsc4)nc3)nc(N[C@H]3CC[C@H](N)CC3)nc21 | 27
70 | 300 | CC(C)n1cnc2c(NCc3ccc(-c4cccnc4)cc3)nc(N[C@H]3CC[C@H](N)CC3)nc21 | 140
200 | 300 | CC(C)n1cnc2c(NCc3ccc(-c4ccsc4)s3)nc(N[C@H]3CC[C@H](N)CC3)nc21 | 150
< 50 | < 50 | CC(C)n1cnc2c(NCc3cnc(-c4ccccc4)s3)nc(N[C@H]3CC[C@H](N)CC3)nc21 | 200
100 | 200 | CC(C)n1cnc2c(NCc3ccc(-c4cccnc4)s3)nc(N[C@H]3CC[C@H](N)CC3)nc21 | 200
85 | 250 | CC(C)n1cnc2c(NCc3csc(-c4ccccc4)c3)nc(N[C@H]3CC[C@H](N)CC3)nc21 | 370
55 | 140 | CC(C)n1cnc2c(NCc3ccc(-c4cccs4)s3)nc(N[C@H]3CC[C@H](N)CC3)nc21 | 300
 | 100 | Cc1csc(-c2ccc(CNc3nc(N[C@H]4CC[C@H](N)CC4)nc4c3ncn4C(C)C)s2)n1 | 40
40 | 80 | CC(C)n1cnc2c(NCc3ccc(-c4cccc(F)c4)nc3)nc(N[C@H]3CC[C@H](N)CC3)nc21 | 16
90 | 150 | CC(C)n1cnc2c(NCc3ccc(-c4ccco4)cc3)nc(N[C@H]3CC[C@H](N)CC3)nc21 | 30
90 | 100 | CC(C)n1cnc2c(NCc3ccc(-c4cccs4)cc3)nc(N[C@H]3CC[C@H](N)CC3)nc21 | 48
950 | 140 | CC(C)n1cnc2c(NCc3ccc(-n4cccn4)cc3)nc(N[C@H]3CC[C@H](N)CC3)nc21 | 170
100 | 200 | CC(C)n1cnc2c(NCc3ccc(-c4ccco4)s3)nc(N[C@H]3CC[C@H](N)CC3)nc21 | 300
100 | 200 | CC(C)n1cnc2c(NCc3ccc(-c4ccccn4)cc3)nc(N[C@H]3CC[C@H](N)CC3)nc21 | 44
30 | 90 | CC(C)n1cnc2c(NCc3ccc(-c4ccccn4)nc3)nc(N[C@H]3CC[C@H](N)CC3)nc21 | 310
40 | 100 | CC(C)n1cnc2c(NCc3ccc(-c4ccccc4)nc3)nc(N[C@H]3CC[C@H](N)CC3)nc21 | 71
